Experimental data from ChEMBL document CHEMBL5625204, “Synthesis and pharmacodynamic evaluation of naphthalene derivatives against influenza A virus in vitro and in vivo” (Eur J Med Chem, 2023).
pEC50: −log10 of the molar value. Active and inactive are the calls of the source. The calls are words filed in the database; no cut-off is given here.

Tests used:
[1] = tested on: Influenza A virus; experiment: Inhibition of Influenza A virus replication infected in dog MDCK cells assessed as downregulation of virus NP protein expression by measuring decrease in green fluorescence intensity at 25 to 50 uM measured after 24 hrs by immunofluorescence analysis; type: functional, organism-based; conditions: dose 25-50 µM
[2] = Selectivity index, ratio of CC50 for dog MDCK cells to EC50 for antiviral activity against Influenza A virus H1N1 (A/Virginia/ATCC2/2009) infected in MDCK cells; type: toxicity, cell-based; conditions: read-out: Ratio CC50/EC50
[3] = tested on: Influenza A virus; experiment: Antiviral activity against Influenza A virus H1N1 infected in human A549 cells assessed as decrease in apoptosis inducing factor gene expression by measuring decrease in TRAIL gene expression at 25 to 50 uM measured after 24 hrs by qRT-PCR analysis; type: functional, organism-based; conditions: dose 25-50 µM
[4] = tested on: Influenza A virus; experiment: Inhibition of Influenza A virus Neuraminidase at 100 to 300 uM pretreated with enzyme for 5 mins followed by fluorogenic substrate addition and measured for 1 hr by fluorescence based analysis; conditions: dose 100-300 µM, time 65.0 min
[5] = tested on: Influenza A virus; experiment: Antiviral activity against Influenza A virus H1N1 infected in human A549 cells assessed as decrease in RIG-1 pathway related gene expression by measuring decrease in RIG-1 gene expression at 25 to 50 uM measured after 24 hrs by qRT-PCR analysis; type: functional, organism-based; conditions: dose 25-50 µM
[6] = Selectivity index, ratio of CC50 for dog MDCK cells to EC50 for antiviral activity against Influenza A virus H1N1 (A/Weiss/43) infected in MDCK cells treated for 72 hrs after viral adsorption; type: toxicity, cell-based; conditions: read-out: Ratio CC50/EC50
[7] = tested on: Influenza A virus; experiment: Antiviral activity against Influenza A virus H1N1 infected in human A549 cells assessed as decrease in RIG-1 pathway related protein expression by measuring decrease in NF-kappaB p65 protein expression at 25 to 50 uM measured after 24 hrs by western blot analysis; type: functional, organism-based; conditions: dose 25-50 µM
[8] = tested on: Influenza A virus; experiment: Antiviral activity against Influenza A virus H1N1 infected in human A549 cells assessed as decrease in cytokine gene expression by measuring decrease in TNF-alpha gene expression at 25 to 50 uM measured after 24 hrs by qRT-PCR analysis; type: functional, organism-based; conditions: dose 25-50 µM
[9] = tested on: Influenza A virus; experiment: Inhibition of Influenza A virus replication infected in dog MDCK cells assessed as downregulation of virus M2 protein expression by measuring decrease in green fluorescence intensity at 25 to 50 uM measured after 24 hrs by immunofluorescence analysis; type: functional, organism-based; conditions: dose 25-50 µM
[10] = tested on: Influenza A virus; experiment: Antiviral activity against Influenza A virus H1N1 (A/Weiss/43)-infected in BALB/c mouse assessed as reduction in viral NP protein expression in lungs at 25 to 100 mg/kg/day administered intranasally for 6 days starting from 3 hrs post-viral infection by immunohistochemistry; type: functional, organism-based; conditions: dose 25-100 mg/kg/day, route nas, time 6.0 day
[11] = tested on: Influenza A virus; experiment: Antiviral activity against Influenza A virus infected in human A549 cells assessed as reduction of viral replication at 6.25 to 100 uM incubated for 72 hrs by TCID50 method; type: functional, organism-based; conditions: dose 6.25-100 µM
[12] = tested on: Influenza A virus; experiment: Antiviral activity against Influenza A virus H1N1 infected in dog MDCK cells assessed as decrease in apoptosis by measuring proportion of early apoptotic cells at 25 uM measured after 72 hrs by AnnexinV-FITC/PI staining based flow cytometry (reference value: 24.3%); type: functional; set-up: scale not given: the % may be the effect or the level left
[13] = tested on: Influenza A virus; experiment: Antiviral activity against Influenza A virus H1N1 (A/Weiss/43) infected in MDCK cells assessed as reduction of viral replication treated for 2 hrs before viral infection and measured after 72 hrs by TCID50 method; type: functional, organism-based
[14] = tested on: Influenza A virus; experiment: Antiviral activity against Influenza A virus H1N1 (A/Weiss/43)-infected in BALB/c mouse assessed as improvement in body weight at 25 to 100 mg/kg/day administered intranasally for 6 days starting from 3 hrs post-viral infection; type: functional, organism-based; conditions: dose 25-100 mg/kg/day, route nas, time 6.0 day
[15] = tested on: Influenza A virus; experiment: Antiviral activity against Influenza A virus H3N2 (A/California/2004) infected in MDCK cells assessed as reduction of viral replication incubated for 72 hrs by TCID50 method; type: functional, organism-based
[16] = tested on: Influenza A virus; experiment: Antiviral activity against Influenza A virus H1N1 infected in human A549 cells assessed as decrease in RIG-1 pathway related gene expression by measuring decrease in MAVS gene expression at 25 to 50 uM measured after 24 hrs by qRT-PCR analysis; type: functional, organism-based; conditions: dose 25-50 µM
[17] = tested on: Influenza A virus; experiment: Inhibition of Influenza A virus replication infected in dog MDCK cells assessed as downregulation of virus NP gene expression at 25 to 50 uM measured after 24 to 72 hrs post-infection by qRT-PCR analysis; type: functional, organism-based; conditions: dose 25-50 µM
[18] = tested on: Influenza A virus; experiment: Antiviral activity against Influenza A virus H1N1 infected in dog MDCK cells assessed as decrease in apoptosis by measuring proportion of late apoptotic cells at 25 uM measured after 72 hrs by AnnexinV-FITC/PI staining based flow cytometry (reference value: 10.3%); type: functional; set-up: scale not given: the % may be the effect or the level left
[19] = tested on: Influenza A virus; experiment: Antiviral activity against Influenza A virus H1N1 infected in human A549 cells assessed as decrease in cytokine gene expression by measuring decrease in IP-10 gene expression at 25 to 50 uM measured after 24 hrs by qRT-PCR analysis; type: functional, organism-based; conditions: dose 25-50 µM
[20] = tested on: Influenza A virus; experiment: Antiviral activity against Influenza A virus H1N1 infected in human A549 cells assessed as decrease in incompleted autophagy by measuring increase in p62 protein expression at 25 to 50 uM measured after 24 hrs by western blot analysis; type: functional, organism-based; conditions: dose 25-50 µM
[21] = Selectivity index, ratio of CC50 for dog MDCK cells to EC50 for antiviral activity against Influenza A virus H1N1 (A/Weiss/43) infected in MDCK cells treated for 2 hrs before viral infection and measured after 72 hrs; type: toxicity, cell-based; conditions: read-out: Ratio CC50/EC50
[22] = tested on: Influenza A virus; experiment: Antiviral activity against Influenza A virus H1N1 infected in human A549 cells assessed as decrease in cytokine gene expression by measuring decrease in IL-6 gene expression at 25 to 50 uM measured after 24 hrs by qRT-PCR analysis; type: functional, organism-based; conditions: dose 25-50 µM
[23] = tested on: Influenza A virus; experiment: Antiviral activity against Influenza A virus H1N1 infected in human A549 cells assessed as decrease in cytokine gene expression by measuring decrease in IL-1 beta gene expression at 25 to 50 uM measured after 24 hrs by qRT-PCR analysis; type: functional, organism-based; conditions: dose 25-50 µM
[24] = tested on: Influenza A virus; experiment: Antiviral activity against Influenza A virus H1N1 (A/Weiss/43)-infected in BALB/c mouse assessed as reduction in lung index at 25 mg/kg/day administered intranasally for 6 days starting from 3 hrs post-viral infection; type: functional; conditions: 144 h, route nas, time 6 day
[25] = tested on: Influenza A virus; experiment: Antiviral activity against Influenza A virus H1N1 infected in human A549 cells assessed as decrease in cytokine gene expression by measuring decrease in IFN-beta gene expression at 25 to 50 uM measured after 24 hrs by qRT-PCR analysis; type: functional, organism-based; conditions: dose 25-50 µM
[26] = tested on: Influenza A virus; experiment: Antiviral activity against Influenza A virus H1N1 (A/Weiss/43)-infected in BALB/c mouse assessed as reduction in IL-6 gene expression in lungs at 25 to 100 mg/kg/day administered intranasally for 6 days starting from 3 hrs post-viral infection by qRT-PCR analysis; type: functional, organism-based; conditions: dose 25-100 mg/kg/day, route nas, time 6.0 day
[27] = tested on: Influenza A virus; experiment: Antiviral activity against Influenza A virus H1N1 (A/Weiss/43)-infected in BALB/c mouse assessed as reduction in lung index at 50 mg/kg/day administered intranasally for 6 days starting from 3 hrs post-viral infection; type: functional; conditions: 144 h, route nas, time 6 day
[28] = tested on: Influenza A virus; experiment: Inhibition of Influenza A virus replication infected in dog MDCK cells assessed as downregulation of virus M gene expression at 25 to 50 uM measured after 24 to 72 hrs post-infection by qRT-PCR analysis; type: functional, organism-based; conditions: dose 25-50 µM

O=[N+]([O-])c1ccc(S(=O)(=O)N(Cc2ccccc2)c2cccc3ccccc23)cc1
inhibition [1]: Active | selectivity ratio [2]: > 240 | inhibition [3]: Active | inhibition [4]: inactive | inhibition [5]: Active | selectivity ratio at 72 h [6]: > 351 | inhibition [7]: Active | inhibition [8]: Active | inhibition [9]: Active | Activity [10]: Active | Activity [11]: Active | Activity [12]: 2.55% | pEC50 [13]: 5.12 | Activity [14]: Active | pEC50 [15]: 5.18 | inhibition [16]: Active | inhibition [17]: Active | Activity [18]: 1.21% | inhibition [19]: Active | inhibition [20]: Active | selectivity ratio at 72 h [21]: > 105 | inhibition [22]: Active | inhibition [23]: Active | inhibition in vivo at 25 mg/kg/day [24]: 20.6% | inhibition [25]: Active | Activity [26]: Active | inhibition in vivo at 50 mg/kg/day [27]: 28.8% | inhibition [28]: Active
